The text below walks through data of patent publication US8580821B2, “Serotonin transporter (SERT) inhibitors for the treatment of depression and anxiety” (Hoffmann-La Roche Inc., priority 2006, dated 2013).

Molecules are shown by their SMILES. Counter-ions that a name gives are not always drawn. Like-named read-outs stand apart in the source and are kept apart here.

In experiment [1] the target is T1, recombinant human SERT (Homo sapiens, UniProt P31645).
T1 construct: expressed in transfected cells
The experiment in a line: hSERT SPA binding assay ([3H]citalopram displacement, HEK-293 membranes). As to the method:
HEK-293 cells stably expressing recombinant human SERT are maintained with DMEM high glucose with 10% FBS, 300 μg/ml G418 and 2 mM L-Glutamine and incubated at 37° C. with 5% CO2. Cells are released from culture flasks using PBS for 1-2 min. The cells are subsequently centrifuged at 1000 g's for 5 min and resuspended in PBS prior to being used in the membrane preparation.
Cells are homogenized using a Polytron in 50 mM Tris (pH 7.4). Centrifuged at 48,000×g for 15 min, and the pellet resuspended in fresh buffer. After a second centrifugation, the pellet is re-homogenized and resuspended in fresh buffer. Typically, membrane portions are aliquoted in 3 mg/ml (w:v). and stored at 80° C.
A serial dilution of test compounds in 50 mM Tris-HCl, 120 mM NaCl, KCl 5 mM (pH 7.4) is made in a white Optiplate (Packard) (100 μl/well) and the radioligand ^3[H] Citalopram (Specific activity: 60-86 Ci/mmol, Final concentration: 1 nM) is added at 50 μl/well. Membrane and beads are prepared to a ratio of 5 μg:0.6 mg, with 0.6 mg PVT-WGA Amersham beads (Cat# RPQ0282V) added per well. 50 μl of the membrane/bead mixture is added to the assay plate for a final volume of 200 μl. The mixtures are allowed to stand at room temperature for one hour, and are then counted on a Packard TopCount.
The inhibition dissociation constant (Ki) of each compound is determined according to the method of Cheng-Prusoff.

Experiment [2] concerns the target T2, human NK-1 receptor (Homo sapiens, UniProt P25103).
T2 construct: expressed in transfected cells; host or cells: CHO cells, Semliki virus expression system; membrane suspension
The experiment is described as follows: hNK-1 binding assay ([3H]substance P displacement, transfected CHO cells). As to the method: The affinity of test compounds for the NK-1 receptor was evaluated at human NK-1 receptors in CHO cells transfected with the human NK-1 receptor using the Semliki virus expression system and radiolabelled with [^3H]substance P (final concentration 0.6 nM). Binding assays were performed in HEPES buffer (50 mM, pH 7.4) containing BSA (0.04%) leupeptin (8 μg/ml), MnCl2 (3 mM) and phosphoramidon (2 μM). Binding assays consisted of 250 μl of membrane suspension (1.25×10^5 cells/assay tube), 125 μl of buffer of displacing agent and 125 μl of [^3H]substance P. Displacement curves were determined with at least ten concentrations of the compound. The assay tubes were incubated for 60 min at room temperature after which time the tube contents were rapidly filtered under vacuum through GF/C filters presoaked for 60 min with PEI (0.3%) with 2×2 ml washes of HEPES buffer (50 mM, pH 7.4). The radioactivity retained on the filters was measured by scintillation counting. All assays were performed in duplicate in at least 2 separate experiments.
The inhibition dissociation constant (Ki) of each compound for NK1 is determined as described above for hSERT.

Where [3] appears, read: read-out: pKi hSERT (converted).
Setting [4] is: [3H]substance P 0.6 nM, CHO cells transfected with human NK-1 receptor, read-out: pKi hNK1 (converted).

T2 sequence (P25103 whole entry): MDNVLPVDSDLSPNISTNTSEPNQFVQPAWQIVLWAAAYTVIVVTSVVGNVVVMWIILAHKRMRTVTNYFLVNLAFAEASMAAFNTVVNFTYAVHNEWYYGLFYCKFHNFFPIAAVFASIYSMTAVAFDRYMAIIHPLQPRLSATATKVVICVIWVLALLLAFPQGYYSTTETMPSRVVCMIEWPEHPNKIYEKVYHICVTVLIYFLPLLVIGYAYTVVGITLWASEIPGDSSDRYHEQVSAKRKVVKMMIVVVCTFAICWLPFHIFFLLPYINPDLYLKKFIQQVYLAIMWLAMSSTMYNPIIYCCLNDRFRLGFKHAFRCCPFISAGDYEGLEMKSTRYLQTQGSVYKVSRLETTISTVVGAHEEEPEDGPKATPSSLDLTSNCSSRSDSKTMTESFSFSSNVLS
T1 sequence (P31645 whole entry): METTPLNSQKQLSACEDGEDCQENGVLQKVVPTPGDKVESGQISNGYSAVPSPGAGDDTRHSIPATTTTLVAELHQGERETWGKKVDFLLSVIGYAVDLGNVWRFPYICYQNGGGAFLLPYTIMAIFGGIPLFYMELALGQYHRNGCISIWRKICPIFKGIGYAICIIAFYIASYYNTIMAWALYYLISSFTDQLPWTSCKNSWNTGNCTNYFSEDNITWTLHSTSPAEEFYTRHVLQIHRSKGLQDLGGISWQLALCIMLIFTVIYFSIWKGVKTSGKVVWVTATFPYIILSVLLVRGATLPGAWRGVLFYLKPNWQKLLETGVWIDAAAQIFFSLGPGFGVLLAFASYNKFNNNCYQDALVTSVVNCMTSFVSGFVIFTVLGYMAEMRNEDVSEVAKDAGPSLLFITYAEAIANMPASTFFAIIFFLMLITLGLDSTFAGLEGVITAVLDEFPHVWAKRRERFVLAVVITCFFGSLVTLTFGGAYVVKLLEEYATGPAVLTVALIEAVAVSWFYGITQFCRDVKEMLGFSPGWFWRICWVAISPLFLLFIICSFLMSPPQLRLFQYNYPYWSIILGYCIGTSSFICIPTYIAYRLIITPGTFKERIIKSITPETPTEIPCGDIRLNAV

Regarding `CS(=O)(=O)N(Cc1cc(C(F)(F)F)cc(C(F)(F)F)c1)C[C@@H]1CNCC[C@H]1c1ccc(F)cc1` [Example 4 of III, reference compound], the Ki in experiment [1] (setting [3]) is 10000 nM; in experiment [2] (setting [4]) it was 30.2 nM. In the same order, the values of `CN(Cc1cc(C(F)(F)F)cc(C(F)(F)F)c1)C[C@@H]1CNCC[C@H]1c1ccc(F)cc1` [Example 2 of III, reference compound] are 708 nM and 20.4 nM. As to `CN1CC[C@@H](c2ccc(F)cc2)[C@H](COCc2cc(C(F)(F)F)cc(C(F)(F)F)c2)C1` [Example 2 of I], the Ki in experiment [1] (setting [3]) was 107 nM; in experiment [2] (setting [4]), 8.13 nM. Turning to `[O-][S+](Cc1cc(C(F)(F)F)cc(C(F)(F)F)c1)C[C@@H]1CNCC[C@H]1c1ccc(F)cc1` (stereo partly shown) [Example 2 of II, reference compound], the Ki was 3020 nM in experiment [1] (setting [3]) and 63.1 nM in experiment [2] (setting [4]). `N#CCN1CC[C@@H](c2ccc(F)cc2)[C@H](COCc2cc(C(F)(F)F)cc(C(F)(F)F)c2)C1` [Example 3 of I, (−)-[(3S,4R)-3-(3,5-Bis-trifluoromethyl-benzyloxymethyl)-4-(4-fluoro-phenyl)-piperidin-1-yl]-acetonitrile]: the Ki was 141 nM in experiment [1] (setting [3]) and 21.4 nM in experiment [2] (setting [4]).

Turning to `Cc1ccccc1C1=C(COCc2cc(C(F)(F)F)cc(C(F)(F)F)c2)CNCC1` [Example 7 of I, 5-(3,5-Bis-trifluoromethyl-benzyloxymethyl)-4-o-tolyl-1,2,3,6-tetrahydro-pyridine hydrochloride], the Ki in experiment [1] (setting [3]) was 32.4 nM; in experiment [2], 3.16 nM.

As for `CC(=O)N(Cc1cc(C(F)(F)F)cc(C(F)(F)F)c1)C[C@@H]1CNCC[C@H]1c1ccc(F)cc1` [Example 3 of III, reference compound], the Ki in experiment [1] (setting [3]) was 10000 nM; in experiment [2] (setting [4]) it was 13.8 nM. As to `Fc1ccc([C@@H]2CCNC[C@H]2COCc2cc(C(F)(F)F)cc(C(F)(F)F)c2)cc1` [Example 1 of I, (−)-(3S,4R)-3-(3,5-Bis-trifluoromethyl-benzyloxymethyl)-4-(4-fluoro-phenyl)-piperidine hydrochloride], the Ki is 6.17 nM in experiment [1] (setting [3]) and 12.6 nM in experiment [2].

Consider `Fc1ccc([C@@H]2CCNC[C@H]2COCc2cccc(C(F)(F)F)c2)cc1` [Example 4 of I, (−)-(3S,4R)-4-(4-Fluoro-phenyl)-3-(3-trifluoromethyl-benzyloxymethyl)-piperidine hydrochloride], for which the figures for the Ki in experiment [1] and in experiment [2] (setting [4]) were 17 nM and 148 nM, respectively. On to `FC(F)(F)c1cc(COC[C@@H]2CNCC[C@H]2c2ccccc2)cc(C(F)(F)F)c1` (racemic) [Example 5 of I, (3SR,4RS)-3-(3,5-Bis-trifluoromethyl-benzyloxymethyl)-4-phenyl-piperidine hydrochloride], for which the Ki in experiment [1] (setting [3]) is 11 nM; in experiment [2] (setting [4]), 8.91 nM. For the compound `Cc1ccccc1[C@@H]1CCNC[C@H]1COCc1cc(C(F)(F)F)cc(C(F)(F)F)c1` (relative stereo) [Example 6 of I, (−)-(trans)-3-(3,5-Bis-trifluoromethyl-benzyloxymethyl)-4-o-tolyl-piperidine hydrochloride], the Ki in experiment [1] (setting [3]) was 32.4 nM; in experiment [2] (setting [4]), 24 nM.

As to `Fc1ccc([C@@H]2CCNCC2CNCc2cc(C(F)(F)F)cc(C(F)(F)F)c2)cc1` (stereo partly shown) [Example 1 of III, reference compound], the Ki in experiment [1] (setting [3]) was 724 nM; in experiment [2] (setting [4]), 12.6 nM. As for `O=S(=O)(Cc1cc(C(F)(F)F)cc(C(F)(F)F)c1)C[C@@H]1CNCC[C@H]1c1ccc(F)cc1` [Example 3 of II, reference compound], the Ki in experiment [2] (setting [4]) is 13.5 nM.
